Patent US9018224B2, “Substituted cyclopropyl compounds useful as GPR119 agonists” (Merck Sharp & Dohme Corp., priority 2011, dated 2015)

These compounds were tested against T1, human GPR119 (Homo sapiens, UniProt Q8TDV5) (assay: Measurement of GPR119 signaling by cAMP (LANCE cAMP kit or HTRF) in HEK293 cells transfected with human GPR119). Conditions: agonist cAMP response in HEK293 cells stably transfected with human GPR119; patent does not say which of the two cAMP formats (LANCE or HTRF).
T1 sequence (Q8TDV5 1-308 limits assumed): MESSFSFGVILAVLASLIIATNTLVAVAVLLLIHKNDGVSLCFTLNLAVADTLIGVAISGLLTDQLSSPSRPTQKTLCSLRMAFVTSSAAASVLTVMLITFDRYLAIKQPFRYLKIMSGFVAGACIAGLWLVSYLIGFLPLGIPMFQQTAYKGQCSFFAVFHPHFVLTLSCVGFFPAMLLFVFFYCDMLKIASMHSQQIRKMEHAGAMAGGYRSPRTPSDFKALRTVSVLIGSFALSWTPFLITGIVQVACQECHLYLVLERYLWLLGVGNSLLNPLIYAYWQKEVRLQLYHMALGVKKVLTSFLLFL
Type: cell-based
Outline: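 LANCE TR-FRET cAMP readout; detection with Eu-SA/biotin-cAMP tracer for 3 h, signal converted to cAMP via standard curve, duplicates, 4-parameter fit vs DMSO basal and internal agonist maximum.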

**Q.** For `O=C(Cc1ccc(OCC[C@@H]2C[C@@H]2C2CCN(c3ncc(Cl)cn3)CC2)cc1F)N1CCc2[nH]nc(C(F)(F)F)c2C1` [Example 146], which EC50 is on record?
**A.** 3.1 nM

**Q.** For `O=C(Cc1ccc(OCC[C@@H]2C[C@@H]2C2CCN(c3ncc(Cl)cn3)CC2)cc1F)N1CCc2c(C(F)(F)F)n[nH]c2C1` [Example 147], which EC50 is on record?
**A.** 2.9 nM

**Q.** With `O=C(Cc1ccc(OCC[C@@H]2C[C@@H]2C2CCN(c3ncc(Cl)cn3)CC2)cc1F)N1CCn2nc(C3CC3)nc2C1` [Example 148] as the compound, how does the EC50 read?
**A.** 1.2 nM

**Q.** For `O=C(Cc1ccc(OCC[C@@H]2C[C@@H]2C2CCN(c3ncc(Cl)cn3)CC2)cc1F)N1CCn2ccnc2C1` [Example 149], which EC50 is on record?
**A.** 1.1 nM

**Q.** `O=C(Cc1ccc(OCC[C@@H]2C[C@@H]2C2CCN(c3ncc(Cl)cn3)CC2)cc1F)N1CCc2nc(C3CC3)oc2C1` [Example 150] was tested. Which EC50 did it give?
**A.** 3.2 nM

**Q.** For `CCc1nnc2n1CCN(C(=O)Cc1ccc(OCC[C@@H]3C[C@@H]3C3CCN(c4ncc(Cl)cn4)CC3)cc1F)C2` [Example 151], which EC50 is on record?
**A.** 4.7 nM

**Q.** With `O=C(Cc1ccc(OCC[C@@H]2C[C@@H]2C2CCN(c3ncc(Cl)cn3)CC2)cc1F)N1CCc2[nH]nnc2C1` [Example 152] as the compound, how does the EC50 read?
**A.** 1.9 nM

**Q.** How did the EC50 turn out when `CN(CCCO)C(=O)Cc1ccc(OCC[C@@H]2C[C@@H]2C2CCN(c3ncc(Cl)cn3)CC2)cc1F` [Example 153] was run?
**A.** 1.6 nM

**Q.** How did the EC50 turn out when `CN(C(=O)Cc1ccc(OCC[C@@H]2C[C@@H]2C2CCN(c3ncc(Cl)cn3)CC2)cc1F)C1CCOC1` (stereo partly drawn) [Example 154] was run?
**A.** 0.41 nM

**Q.** With `CN(C(=O)Cc1ccc(OCC[C@@H]2C[C@@H]2C2CCN(c3ncc(Cl)cn3)CC2)cc1F)C1CCOCC1` [Example 155] as the compound, how does the EC50 read?
**A.** 1.3 nM

**Q.** How did the EC50 turn out when `CN(CC1CCCCO1)C(=O)Cc1ccc(OCC[C@@H]2C[C@@H]2C2CCN(c3ncc(Cl)cn3)CC2)cc1F` (stereo partly drawn) [Example 156] was run?
**A.** 2.8 nM

**Q.** How did the EC50 turn out when `CN(CC1CCOCC1)C(=O)Cc1ccc(OCC[C@@H]2C[C@@H]2C2CCN(c3ncc(Cl)cn3)CC2)cc1F` [Example 157] was run?
**A.** 2.4 nM

**Q.** With `CN(Cc1n[nH]c(=O)[nH]1)C(=O)Cc1ccc(OCC[C@@H]2C[C@@H]2C2CCN(c3ncc(Cl)cn3)CC2)cc1F` [Example 158] as the compound, how does the EC50 read?
**A.** 6.6 nM

**Q.** How did the EC50 turn out when `CN(CC(N)=O)C(=O)Cc1ccc(OCC[C@@H]2C[C@@H]2C2CCN(c3ncc(Cl)cn3)CC2)cc1F` [Example 159] was run?
**A.** 3.7 nM

**Q.** `CCC(C)CN(C)C(=O)Cc1ccc(OCC[C@@H]2C[C@@H]2C2CCN(c3ncc(Cl)cn3)CC2)cc1F` (stereo partly drawn) [Example 160] was tested. Which EC50 did it give?
**A.** 3.1 nM

**Q.** For `CC1CCC(N(C)C(=O)Cc2ccc(OCC[C@@H]3C[C@@H]3C3CCN(c4ncc(Cl)cn4)CC3)cc2F)CC1` (stereo partly drawn) [Example 161], which EC50 is on record?
**A.** 3.7 nM

**Q.** How did the EC50 turn out when `CN(C(=O)Cc1ccc(OCC[C@@H]2C[C@@H]2C2CCN(c3ncc(Cl)cn3)CC2)cc1F)C1CCS(=O)(=O)C1` (stereo partly drawn) [Example 162] was run?
**A.** 1.3 nM

**Q.** Which EC50 does the source give for `O=C(Cc1ccc(OCC[C@@H]2C[C@@H]2C2CCN(c3ncc(Cl)cn3)CC2)cc1F)N1CCC(O)CC1` [Example 163] here?
**A.** 1.7 nM

**Q.** Which EC50 does the source give for `CN(C(=O)Cc1ccc(OCC[C@@H]2C[C@@H]2C2CCN(c3ncc(Cl)cn3)CC2)cc1F)C1CCCCC1` [Example 164] here?
**A.** 1.6 nM

**Q.** `CN(CCC1CCOCC1)C(=O)Cc1ccc(OCC[C@@H]2C[C@@H]2C2CCN(c3ncc(Cl)cn3)CC2)cc1F` [Example 165] was tested. Which EC50 did it give?
**A.** 2.6 nM

**Q.** How did the EC50 turn out when `CC(C)CN(C)C(=O)Cc1ccc(OCC[C@@H]2C[C@@H]2C2CCN(c3ncc(Cl)cn3)CC2)cc1F` [Example 166] was run?
**A.** 2 nM

**Q.** Which EC50 does the source give for `CN(CC1CCCCC1)C(=O)Cc1ccc(OCC[C@@H]2C[C@@H]2C2CCN(c3ncc(Cl)cn3)CC2)cc1F` [Example 167] here?
**A.** 7.6 nM

**Q.** For `CN(CC(C)(C)C)C(=O)Cc1ccc(OCC[C@@H]2C[C@@H]2C2CCN(c3ncc(Cl)cn3)CC2)cc1F` [Example 168], which EC50 is on record?
**A.** 9.4 nM

**Q.** Which EC50 does the source give for `CN(CCS(C)(=O)=O)C(=O)Cc1ccc(OCC[C@@H]2C[C@@H]2C2CCN(c3ncc(Cl)cn3)CC2)cc1F` [Example 169] here?
**A.** 3.2 nM

**Q.** Which EC50 does the source give for `CN(CCO)C(=O)Cc1ccc(OCC[C@@H]2C[C@@H]2C2CCN(c3ncc(Cl)cn3)CC2)cc1F` [Example 170] here?
**A.** 1.7 nM

**Q.** How did the EC50 turn out when `CCOC(=O)CN(C)C(=O)Cc1ccc(OCC[C@@H]2C[C@@H]2C2CCN(c3ncc(Cl)cn3)CC2)cc1F` [Example 171] was run?
**A.** 1.7 nM

**Q.** For `O=C(Cc1ccc(OCC[C@@H]2C[C@@H]2C2CCN(c3ncc(Cl)cn3)CC2)cc1F)N1CCc2scnc2C1` [Example 172], which EC50 is on record?
**A.** 0.6 nM

**Q.** How did the EC50 turn out when `O=C(Cc1ccc(OCC[C@@H]2C[C@@H]2C2CCN(c3ncc(Cl)cn3)CC2)cc1F)N1Cc2sccc2C(O)C1` (stereo partly drawn) [Example 173] was run?
**A.** 0.97 nM

**Q.** Which EC50 does the source give for `CC1c2cccn2CCN1C(=O)Cc1ccc(OCC[C@@H]2C[C@@H]2C2CCN(c3ncc(Cl)cn3)CC2)cc1F` (stereo partly drawn) [Example 174] here?
**A.** 1.2 nM

**Q.** For `CC1CN(C(=O)Cc2ccc(OCC[C@@H]3C[C@@H]3C3CCN(c4ncc(Cl)cn4)CC3)cc2F)Cc2nnc(C(F)(F)F)n21` (stereo partly drawn) [Example 175], which EC50 is on record?
**A.** 1.1 nM

**Q.** How did the EC50 turn out when `Cc1nc2c(s1)CN(C(=O)Cc1ccc(OCC[C@@H]3C[C@@H]3C3CCN(c4ncc(Cl)cn4)CC3)cc1F)CC2` [Example 176] was run?
**A.** 0.78 nM

**Q.** With `CC1c2nc(C(F)(F)F)nn2CCN1C(=O)Cc1ccc(OCC[C@@H]2C[C@@H]2C2CCN(c3ncc(Cl)cn3)CC2)cc1F` (stereo partly drawn) [Example 177] as the compound, how does the EC50 read?
**A.** 0.6 nM

**Q.** `CC(C)(C)NC(=O)c1nnc2n1CCN(C(=O)Cc1ccc(OCC[C@@H]3C[C@@H]3C3CCN(c4ncc(Cl)cn4)CC3)cc1F)C2` [Example 178] was tested. Which EC50 did it give?
**A.** 2.8 nM

**Q.** Which EC50 does the source give for `CC1(C)CN(C(=O)Cc2ccc(OCC[C@@H]3C[C@@H]3C3CCN(c4ncc(Cl)cn4)CC3)cc2F)Cc2nnc(C(F)(F)F)n21` [Example 179] here?
**A.** 1.1 nM

**Q.** For `CC1c2ncc(C(F)(F)F)n2CCN1C(=O)Cc1ccc(OCC[C@@H]2C[C@@H]2C2CCN(c3ncc(Cl)cn3)CC2)cc1F` (stereo partly drawn) [Example 180], which EC50 is on record?
**A.** 0.82 nM

**Q.** `O=C(Cc1ccc(OCC[C@@H]2C[C@@H]2C2CCN(c3ncc(Cl)cn3)CC2)cc1F)N1CCn2c(Cc3ccccc3)cnc2C1` [Example 181] was tested. Which EC50 did it give?
**A.** 6.1 nM

**Q.** How did the EC50 turn out when `O=C(Cc1ccc(OCC[C@@H]2C[C@@H]2C2CCN(c3ncc(Cl)cn3)CC2)cc1F)N1CCc2cn[nH]c2C1` [Example 182] was run?
**A.** 2.4 nM

**Q.** For `O=C(Cc1ccc(OCC[C@@H]2C[C@@H]2C2CCN(c3ncc(Cl)cn3)CC2)cc1F)N1CCc2oncc2C1` [Example 183], which EC50 is on record?
**A.** 0.93 nM

**Q.** With `O=C(Cc1ccc(OCC[C@@H]2C[C@@H]2C2CCN(c3ncc(Cl)cn3)CC2)cc1F)N1CCc2nc(C3CC3)sc2C1` [Example 184] as the compound, how does the EC50 read?
**A.** 1.7 nM

**Q.** For `O=C(Cc1ccc(OCC[C@@H]2C[C@@H]2C2CCN(c3ncc(Cl)cn3)CC2)cc1F)N1CCc2sccc2C1` [Example 185], which EC50 is on record?
**A.** 2.2 nM

**Q.** How did the EC50 turn out when `O=C(Cc1ccc(OCC[C@@H]2C[C@@H]2C2CCN(c3ncc(Cl)cn3)CC2)cc1F)N1CCc2sc(C(F)(F)F)nc2C1` [Example 186] was run?
**A.** 1.7 nM

**Q.** With `Cn1nc(C(F)(F)F)c2c1CCN(C(=O)Cc1ccc(OCC[C@@H]3C[C@@H]3C3CCN(c4ncc(Cl)cn4)CC3)cc1F)C2` [Example 187] as the compound, how does the EC50 read?
**A.** 2 nM

**Q.** How did the EC50 turn out when `CC1c2nc(C(F)(F)F)cn2CCN1C(=O)Cc1ccc(OCC[C@@H]2C[C@@H]2C2CCN(c3ncc(Cl)cn3)CC2)cc1F` (stereo partly drawn) [Example 188] was run?
**A.** 0.55 nM

**Q.** How did the EC50 turn out when `Cn1nc(C(F)(F)F)c2c1CN(C(=O)Cc1ccc(OCC[C@@H]3C[C@@H]3C3CCN(c4ncc(Cl)cn4)CC3)cc1F)CC2` [Example 189] was run?
**A.** 6 nM

**Q.** `O=C(Cc1ccc(OCC[C@@H]2C[C@@H]2C2CCN(c3ncc(Cl)cn3)CC2)cc1F)N1CCc2sc(C3CC3)nc2C1` [Example 190] was tested. Which EC50 did it give?
**A.** 6.4 nM

**Q.** How did the EC50 turn out when `Cc1ccc2n1CCN(C(=O)Cc1ccc(OCC[C@@H]3C[C@@H]3C3CCN(c4ncc(Cl)cn4)CC3)cc1F)C2C` (stereo partly drawn) [Example 191] was run?
**A.** 3.4 nM

**Q.** For `O=C(Cc1ccc(OCC[C@@H]2C[C@@H]2C2CCN(c3ncc(Cl)cn3)CC2)cc1F)N1CCc2[nH]c(C(F)(F)F)nc2C1` [Example 192], which EC50 is on record?
**A.** 2.1 nM

**Q.** How did the EC50 turn out when `CC1c2nnc(C(F)(F)F)n2C(C)CN1C(=O)Cc1ccc(OCC[C@@H]2C[C@@H]2C2CCN(c3ncc(Cl)cn3)CC2)cc1F` (stereo partly drawn) [Example 193] was run?
**A.** 1.1 nM

**Q.** How did the EC50 turn out when `O=C(Cc1ccc(OCC[C@@H]2C[C@@H]2C2CCN(c3ncc(Cl)cn3)CC2)cc1F)N1CCCc2cnccc21` [Example 194] was run?
**A.** 3.6 nM

**Q.** With `O=C(Cc1ccc(OCC[C@@H]2C[C@@H]2C2CCN(c3ncc(Cl)cn3)CC2)cc1F)N1CCC(C(F)(F)F)n2nccc21` (stereo partly drawn) [Example 195] as the compound, how does the EC50 read?
**A.** 2.9 nM

**Q.** For `O=C(Cc1ccc(OCC[C@@H]2C[C@@H]2C2CCN(c3ncc(Cl)cn3)CC2)cc1F)N1CCCc2[nH]nc(C3CC3)c21` [Example 196], which EC50 is on record?
**A.** 5.4 nM

**Q.** `O=C(Cc1ccc(OCC[C@@H]2C[C@@H]2C2CCN(c3ncc(Cl)cn3)CC2)cc1F)N1Cc2nc(-c3ccccc3)[nH]c2C1` [Example 197] was tested. Which EC50 did it give?
**A.** 6.8 nM

**Q.** With `O=C(Cc1ccc(OCC[C@@H]2C[C@@H]2C2CCN(c3ncc(Cl)cn3)CC2)cc1F)N1CCc2ncccc2C1` [Example 198] as the compound, how does the EC50 read?
**A.** 1.3 nM

**Q.** With `CCOCc1cnc(N2CCC([C@H]3C[C@H]3CCOc3ccc(CC(=O)N4CC(O)C4)c(F)c3)CC2)nc1` [Example 199, 2-(4-{2-[(1S,2R)-2-{1-[5-(ethoxymethyl)pyrimidin-2-yl]piperidin-4-yl}cyclopropyl]ethoxy}-2-fluorophenyl)-1-(3-hydroxyazetidin-1-yl)ethanone] as the compound, how does the EC50 read?
**A.** 1.9 nM
